From ChEMBL document CHEMBL4004820 (J Med Chem, 2017)

Tests used:
[1] = test system: Influenza A virus (A/Udorn/307/1972(H3N2))
[2] = test system: Influenza A virus (A/Udorn/307/1972(H3N2)); remark: listed apart in the source
[3] = Antiviral activity against Influenza A virus (A/WSN/1933(H1N1)) expressing wild-type M2 proton channel infected in MDCK cells assessed as reduction in cytopathic effect after 48 hrs by crystal violet staining-based microscopic analysis; type: functional, cell-based
MDCK = assay: Cytotoxicity against MDCK cells measured after 72 hrs et staining-based microscopic analysis; type: cell-based, Canis lupus familiaris; settings: dog
[4] = Binding affinity to Influenza virus A (A/Udorn/72 (H3N2)) M2 protein at pH 7.5 in presence of KCl by electrophysiology method; design: species or system Influenza A virus (A/udorn/1972(H3N2))
[5] = test system: Influenza A virus (A/Udorn/307/1972(H3N2)); remark: listed apart in the source
[6] = test system: Influenza A virus (A/California/07/2009(H1N1)); assay: Inhibition of full-length Influenza A virus (A/California/07/2009(H1N1)) M2 proton channel expressed in HEK cells assessed as inhibition of low-pH-dependent inward proton currents at 100 uM and pH 5.5 measured after 3 mins in presence of CaCl2 by electrophysiology method relative to control; type: cell-based
[7] = test system: Influenza A virus (A/California/07/2009(H1N1)); assay: Inhibition of full-length Influenza A virus (A/California/07/2009(H1N1)) M2 proton channel expressed in HEK cells assessed as inhibition of low-pH-dependent inward proton currents at 100 uM and pH 5.5 measured after 30 mins in presence of CaCl2 by electrophysiology method relative to control; type: cell-based

SMILES | Activity [1] | Activity [2] | IC50 [3] | CC50 (MDCK) | Kd [4] | -TdeltaS [5] | IC50 ([3]; Influenza A virus, MDCK, 48 h, read-out: IC50) | inhibition [6] | inhibition [7]
NC12CC3CC(CC(C3)C1)C2 [AMANTADINE] | 32 degree | 22 degree | Not Active | > 100 µM | 9 µM | -1.11 kcal/mol | – | – | –
CN1CCCC12C1CC3CC(C1)CC2C3 (stereo not drawn) | – | – | Not Active | > 100 µM | – | -4.46 kcal/mol | – | – | –
CCOC(=O)C1=C[C@@H](OC(CC)CC)[C@H](NC(C)=O)[C@@H](N)C1 [OSELTAMIVIR] | – | – | – | – | – | – | 0.02 µM | – | –
C1CNC2(C1)C1CC3CC(C1)CC2C3 (stereo not drawn) | – | – | Not Active | > 100 µM | – | -3.97 kcal/mol | – | 4% | 5%
NC1(C23CC4CC(CC(C4)C2)C3)CCCC1 | – | – | Not Active | > 100 µM | – | – | – | 4% | 4%
CC1(N)C2CC3CC(C2)CC1C3 (stereo not drawn) | – | – | Not Active | 25.6 µM | – | -1.51 kcal/mol | – | – | –
NC1(C23CC4CC(CC(C4)C2)C3)CCCCC1 | – | – | Not Active | > 100 µM | – | – | – | – | –
CCCC1(N)C2CC3CC(C2)CC1C3 (stereo not drawn) | 32 degree | 22 degree | Not Active | > 100 µM | – | -0.932 kcal/mol | – | – | –
CC12CC3CC(CC(C3)C13CCCN3)C2 (stereo not drawn) | – | – | Not Active | > 100 µM | – | -3 kcal/mol | – | – | –
CCC1(N)C2CC3CC(C2)CC1C3 (stereo not drawn) | – | – | Not Active | > 100 µM | – | -1.38 kcal/mol | – | – | –
NC1C2CC3CC(C2)CC1C3 (stereo not drawn) | – | – | Not Active | 70.5 µM | – | -0.93 kcal/mol | – | – | –
